In patent publication US20230091336A1, “CANNABINOID COMPOSITIONS” (priority 2020, published 2023):
Where two headings read alike, the source gives them in different places.

Assays:
[1] = tested on: SOCE in THP-1 human monocytes; experiment: SOCE Fura-2 bioassay in THP-1 cells; conditions: for combinatory effect when paired with 2.2 μM CBGA: 10 μM cannabinoid + 2.2 μM CBGA, FIG. 10Z; for combinatory effect on SOCE inhibition when paired with CBGA (isobolographic analysis): pairs expected to inhibit 50%, FIGS. 10U-10Y
SOCE in Jurkat T cells = experiment: SOCE Fura-2 bioassay in Jurkat cells; format: cell-based, human; conditions: for combinatory effect on SOCE inhibition when paired with CBGA (isobolographic analysis): pairs expected to inhibit 50%, FIGS. 10A-10T; for effect on SOCE Ca^2+ signals, pure compounds: 10 μM, 1 μM thapsigargin, FIG. 7A, 7C
[2] = tested on: SOCE in Luva human mast cells; experiment: SOCE Fura-2 bioassay in Luva cells; conditions: Table 5
Experimental: (§1) Briefly, SOCE inhibition experiments were performed as described in Example 8, using each of the hemp extracts listed below and in Tables 6A and 6B at six concentrations each in each of the five cell types listed above to obtain dose response curves, as shown in FIGS. 11A-11SS. […] All data are averages of three independent runs±SEM. […] Hemp extracts used in FIGS. 11A-11SS are: Sour Space Candy (SSC), Hawaiian Haze (HH), Special Sauce (SS), Suver Haze (SH), White CBG (WCBG), Elektra (ELEK), Cherry Wine (CW), Lifter (LIF), Grape Soda (GS).

[3] = tested on: SOCE in U937 human monocytes; experiment: SOCE Fura-2 bioassay in U937 cells; conditions: Table 5
Experimental: as §1

[4] = tested on: SOCE in RBL-2H3 rat mast cells; experiment: SOCE Fura-2 bioassay in RBL-2H3 cells; conditions: Table 5
Experimental: as §1

[5] = tested on: SOCE in HEK-293 human embryonic kidney cells; experiment: SOCE Fura-2 bioassay in HEK293 cells; format: cell-based; conditions: for IC50: Table 5; for inhibitory effect in immune cells compared with non-immune HEK293 cells: 10 μM, HEK293 (FIG. 8) vs immune cells
[6] = Homo sapiens, THP-1, read-out: IC50 SOCE, purified cannabinoids
[7] = Homo sapiens, read-out: IC50 SOCE, purified cannabinoids, Jurkat, Table 5
[8] = Homo sapiens, Mast cell, read-out: IC50 SOCE, purified cannabinoids, Luva
[9] = Homo sapiens, U-937, read-out: IC50 SOCE, purified cannabinoids, U937
[10] = Rattus norvegicus, RBL-2H3, read-out: IC50 SOCE, purified cannabinoids, RBL-2H3
[11] = Homo sapiens, HEK293, read-out: IC50 SOCE, purified cannabinoids, HEK-293

SMILES	IC50 [1, 6] [µM]	IC50 (SOCE in Jurkat T cells; [7]) [µM]	IC50 [2, 8] [µM]	IC50 [3, 9] [µM]	IC50 [4, 10] [µM]	IC50 [5, 11] [µM]	combinatory effect when paired with 2.2 μM CBGA ([1]; THP-1)	combinatory effect on SOCE inhibition when paired with CBGA (isobolographic analysis) (SOCE in Jurkat T cells)	combinatory effect on SOCE inhibition when paired with CBGA (isobolographic analysis) ([1]; THP-1)	effect on SOCE Ca^2+ signals, pure compounds (SOCE in Jurkat T cells)	inhibitory effect in immune cells compared with non-immune HEK293 cells [5]	IC50 ([1]; read-out: IC50 SOCE, purified cannabinoids, THP-1, Table 5) [µM]	IC50 (SOCE in Jurkat T cells; read-out: IC50 SOCE, purified cannabinoids, Table 5) [µM]	IC50 ([2]; read-out: IC50 SOCE, purified cannabinoids, Luva) [µM]	IC50 ([3]; read-out: IC50 SOCE, purified cannabinoids, U937) [µM]	IC50 ([4]; read-out: IC50 SOCE, purified cannabinoids, RBL-2H3) [µM]	IC50 ([5]; read-out: IC50 SOCE, purified cannabinoids, HEK-293) [µM]
CCCc1cc(O)c2c(c1)OC(C)(C)[C@@H]1CCC(C)=C[C@@H]21 [THCV, trimethyl-3-propyl-6a,7,8,10a-tetrahydro-6H-benzo[c]chromen-1-ol]	> 50	10.7	> 50	> 50	> 50	> 50	–	–	–	–	–	–	–	–	–	–	–
CCCCCc1cc(OC)c2c(c1)OC(C)(C)c1ccc(C)cc1-2 [CBNM, 1-methoxy-6,6,9-trimethyl-3-pentyl-6H-benzo[c]chromene]	> 50	> 50	> 50	> 50	> 50	> 50	–	–	–	–	–	–	–	–	–	–	–
CCCc1cc(O)c(C/C=C(\C)CCC=C(C)C)c(O)c1 [CBGV, (E)-2-(3,7-dimethylocta-2,6-dien-1-yl)-5-propylbenzene-1,3-diol]	40.7	5.27	6.46	14.5	30.9	9.16	simple additive agonists	supra-additive	–	–	–	–	–	–	–	–	–
CCCCCc1cc2c(c(O)c1C(=O)O)C=C[C@@](C)(CCC=C(C)C)O2 [CBCA, (R)-5-hydroxy-2-methyl-2-(4-methylpent-3-en-1-yl)-7-pentyl-2H-chromene-6-carboxylic acid]	29.1	1.13	> 50	> 50	> 50	> 50	–	Simple additive	–	–	–	–	–	–	–	–	–
CCCCCc1cc(O)c2c(c1)OC(C)(C)[C@@H]1CC=C(C)C[C@@H]21 [Δ8-THC, (6aR,10aR)-6,6,9-trimethyl-3-pentyl-6a,7,10,10a-tetrahydro-6H-benzo[c]chromen-1-ol]	> 50	14.2	39.7	> 50	> 50	> 50	sub-additive	sub-additive	–	–	–	–	–	–	–	–	–
C=C(C)c1ccc(C)cc1-c1c(O)cc(CCCCC)cc1O [CBND, 5′-methyl-4-pentyl-2′-(prop-1-en-2-yl)-[1,1′ biphenyl]-2,6-diol]	> 50	6.7	19	24	32.8	21.4	–	Simple additive	–	–	–	–	–	–	–	–	–
C=C(C)[C@@H]1CCC(C)=C[C@H]1c1c(O)cc(CCC)c(C(=O)O)c1O [CBDVA, (1′R,2′R)-2,6-dihydroxy-5′-methyl-2′-(prop-1-en-2-yl)-4-propyl-1′,2′,3′,4′-tetrahydro-[1,1′-biphenyl]-3-carboxylic acid]	8.45	11.3	11.3	10.6	23.5	20.7	–	sub-additive	–	–	–	–	–	–	–	–	–
C=C(C)[C@@H]1CCC(C)=C[C@H]1c1c(O)cc(CCCCC)c(C(=O)O)c1O [CBDA, (1′R,2′R)-2,6-dihydroxy-5′-methyl-4-penlyl-2′-(prop-1-en-2-yl)-1′,2′,3′,4′-tetrahydro-[1,1′-biphenyl]-3-carboxylic acid]	5.17	4.07	2.4	5.83	16.1	26.9	–	sub-additive	sub-additive	fully block the Ca^2+ signals	selective	–	–	–	–	–	–
C=C(C)[C@@H]1CCC(C)=C[C@H]1c1c(O)cc(CCC)cc1O [CBDV, (1′R,2′R)-5′-methyl-2′-(prop-1-en-2-yl)-4-propyl-1′,2′,3′,4′-tetrahydro-[1,1′-biphenyl]-2,6-diol]	> 50	6	0.17	17.5	30.2	17.8	–	sub-additive	–	–	selective	–	–	–	–	–	–
CCCCCc1cc(O)c(C/C=C(\C)CCC=C(C)C)c(O)c1 [CBG, (E)-2-(3,7-dimethylocta-2,6-dien-1-yl)-5-penlylbenzene-1,3-diol]	33.6	2.36	3.29	33.5	> 50	> 50	simple additive agonists	supra-additive	–	–	–	–	–	–	–	–	–
CCCCCc1cc(O)c2c(c1)OC(C)(C)c1ccc(C)cc1-2 [CBN, 6,6,9-trimethyl-3-pentyl-6H-benzo[c]chromen-1-ol]	> 50	9.09	33.4	45.3	42.6	26.9	simple additive agonists	Simple additive	–	–	–	–	–	–	–	–	–
CCCCCc1cc(O)c2c(c1)OC(C)(CCC=C(C)C)C=C2 (stereo not shown) [CBC, 2-methyl-2-(4-methylpent-3-en-1-yl)-7-pentyl-2H-chromen-5-ol]	–	–	–	–	–	–	–	–	–	–	–	> 50	13.1	26.8	40.8	31.6	18.7
CCCc1cc(O)c(C/C=C(\C)CCC=C(C)C)c(O)c1C(=O)O [CBGVA, (E)-3-(3,7-dimethylocta-2,6-dien-1-yl)-2,4-dihydroxy-6-propylbenzoic acid]	2.6	1.15	2.53	2.86	4.15	2.11	–	Simple additive	sub-additive	–	–	–	–	–	–	–	–
CCCCCc1cc(O)c2c(c1)OC(C)(C)[C@@H]1CCC(C)=C[C@@H]21 [Δ9-THC, (6aR,10aR)-6,6,9-trimethyl-3-pentyl-6a,7,8,10a-tetrahydro-6H-benzo[c]chromen-1-ol]	> 50	> 50	0.97	> 50	> 50	> 50	–	–	–	low to no effects	–	–	–	–	–	–	–
CCCCCc1cc2c(c(O)c1C(=O)O)[C@@H]1[C@H]3C(CC[C@@]3(C)O2)C1(C)C (stereo partly drawn) [CBLA, (1aS,1a1R,3aR,8bR)-8-hydroxy-1,1,3a-trimethyl-6-pentyl-1a, 1a1,2,3,3a, 8b-hexahydro-1H-4-oxabenzo[f]cyclobuta[cd]indene-7-carboxylic acid]	12.4	9.29	20.9	28.3	> 50	31.1	–	sub-additive	–	–	–	–	–	–	–	–	–
CCCCCc1cc(O)c2c(c1)OC(C)(C)[C@@H]1CCC(C(=O)O)=C[C@@H]21 [11-COOH-Δ9-THC, (6aR,10aR)-1-hydroxy-6,6-dimethyl-3-pentyl-6a,7,8,10a-tetrahydro-6H-benzo[c]chromene-9-carboxylic acid]	–	–	–	–	–	–	–	–	–	–	selective	–	–	–	–	–	–
